What was measured:
Gal4-RORγ-LBD = biological target: T1, Gal4-RORγ-LBD (Homo sapiens, UniProt P51449); assay: Gal4-RORγ Luciferase Reporter Assay in HEK-293T Cells; assay type: cell-based; conditions: HEK-293 cells
T1 construct: expressed in transfected cells; host or cells: HEK-293 cells (pcDNA3.1neo plasmid)
T1 sequence (P51449 269-508 limits assumed): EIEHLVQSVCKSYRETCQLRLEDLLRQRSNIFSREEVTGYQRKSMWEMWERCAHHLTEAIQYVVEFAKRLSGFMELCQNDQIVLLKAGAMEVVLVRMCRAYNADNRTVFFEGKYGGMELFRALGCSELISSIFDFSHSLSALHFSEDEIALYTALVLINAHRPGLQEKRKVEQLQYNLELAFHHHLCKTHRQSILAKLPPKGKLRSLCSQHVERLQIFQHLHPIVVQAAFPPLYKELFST
Procedure, shortened: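 In transfected HEK-293 cells (Gal4-RORγ-LBD, Gal4-luciferase), test agents with 2 μM ursolic acid were incubated overnight at 37 °C before luminescent detection. Values are relative to the ursolic-acid-free, compound-free signal (100).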

RORγ-LBD = biological target: T2, RORγ-LBD (Homo sapiens, UniProt P51449); assay: RORγ-Ligand Binding Domain (LBD) TR-FRET Assay; assay type: biochemical;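 on TR-FRET Assay Max Response: 665/615 nm ratio relative to signal without ursolic acid or compound set at 100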
T2 construct: made in house; host or cells: SF9 cells (baculovirus)
T2 sequence (P51449 269-508 limits assumed): T1 sequence (P51449 269-508 limits assumed)
Procedure, shortened: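 SF9 lysate containing His-RORγ-LBD, ~3 nM final; coactivator peptide biotin-SRC1 LXXLL, 200 nM final; ursolic acid 2 μM final; DMSO 1% final; Tris pH 7.0 buffer with KCl, EDTA, DTT, BSA. TR-FRET format.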

[1] = luciferase reporter, with 2 μM ursolic acid

EC50 (Gal4-RORγ-LBD; [1]) [nM] | EC50 (RORγ-LBD) [nM] | EC50 (Gal4-RORγ-LBD; 2 μM ursolic acid) [nM] | Compound | Gal4-RORγ Assay Max Response (Gal4-RORγ-LBD; [1]) | TR-FRET Assay Max Response (RORγ-LBD) | Gal4-RORγ Assay Max Response (Gal4-RORγ-LBD; 2 μM ursolic acid)
500 to 5000 | < 500 | – | Cc1cccc(-c2ccc3c(c2)N(S(=O)(=O)c2cccc(C(F)(F)F)c2)C[C@H](CCC(=O)O)O3)n1 [Compound 4S, (S)-3-(6-(6-methylpyridin-2-yl)-4-((3-(trifluoromethyl)phenyl)-sulfonyl)-3,4-dihydro-2H-benzo[b][1,4]oxazin-2-yl)propanoic acid] | **** (The symbol “****” indicates a value greater than 200) | **** (The symbol “****” indicates a value greater than 200) | –
500 to 5000 | < 500 | – | CCn1cc(S(=O)(=O)N2C[C@H](CCC(=O)O)Oc3ccc(-c4cccc(Cl)c4)cc32)c(Cl)n1 [Compound 6C, (S)-3-(4-((3-chloro-1-ethyl-1H-pyrazol-4-yl)sulfonyl)-6-(3-chlorophenyl)-3,4-dihydro-2H-benzo[b][1,4]oxazin-2-yl)propanoic acid] | ** (The symbol “**” indicates a value in the range of greater than 90 to 150) | **** (The symbol “****” indicates a value greater than 200) | –
> 10000 | > 10000 | – | O=C(O)CC[C@H]1CN(S(=O)(=O)c2cccc(C(F)(F)F)c2)c2cc(-c3cccc(OCCO)c3)ccc2O1 [Compound 4AB, (S)-3-(6-(3-(2-hydroxyethoxy)-phenyl)-4-((3-(trifluoromethyl)phenyl)-sulfonyl)-3,4-dihydro-2H-benzo[b][1,4]oxazin-2-yl)propanoic acid] | – | – | –
< 500 | < 500 | – | O=C(O)CC[C@H]1CN(S(=O)(=O)c2cccc(C(F)(F)F)c2)c2cc(-c3cccc(F)c3Cl)ccc2O1 [Compound 2AH, (S)-3-(6-(2-chloro-3-fluoro-phenyl)-4-((3-(trifluoromethyl)-phenyl)sulfonyl)-3,4-dihydro-2H-benzo[b][1,4]oxazin-2-yl)propanoic acid] | *** (The symbol “***” indicates a value in the range of greater than 150 to 200) | **** (The symbol “****” indicates a value greater than 200) | –
< 500 | < 500 | – | COc1ccccc1-c1ccc2c(c1)N(S(=O)(=O)c1cccc(C(F)(F)F)c1)C[C@H](CCC(=O)O)O2 [Compound 2T, (S)-3-(6-(2-methoxyphenyl)-4-((3-(trifluoromethyl)phenyl)-sulfonyl)-3,4-dihydro-2H-benzo[b][1,4]oxazin-2-yl)propanoic acid] | *** (The symbol “***” indicates a value in the range of greater than 150 to 200) | **** (The symbol “****” indicates a value greater than 200) | –
< 500 | < 500 | – | O=C(O)CC[C@H]1CN(S(=O)(=O)c2cccc(C(F)(F)F)c2)c2cc(-c3cccc(OC(F)F)c3)ccc2O1 [Compound 4T, (S)-3-(6-(3-(difluoromethoxy)-phenyl)-4-((3-(trifluoromethyl)-phenyl)sulfonyl)-3,4-dihydro-2H-benzo[b][1,4]oxazin-2-yl)propanoic acid] | **** (The symbol “****” indicates a value greater than 200) | **** (The symbol “****” indicates a value greater than 200) | –

Second part, the compound before the results:

Compound | EC50 (Gal4-RORγ-LBD; [1]) [nM] | EC50 (RORγ-LBD) [nM] | EC50 (Gal4-RORγ-LBD; 2 μM ursolic acid) [nM] | Gal4-RORγ Assay Max Response (Gal4-RORγ-LBD; [1]) | TR-FRET Assay Max Response (RORγ-LBD) | Gal4-RORγ Assay Max Response (Gal4-RORγ-LBD; 2 μM ursolic acid)
O=C(O)CC[C@H]1CN(S(=O)(=O)c2cccc(C(F)(F)F)c2)c2cc(-c3cc(F)cc(F)c3Cl)cc(F)c2O1 [Compound 22H, (S)-3-(6-(2-chloro-3,5-difluoro-phenyl)-8-fluoro-4-((3-(trifluoro-methyl)phenyl)sulfonyl)-3,4-dihydro-2H-benzo[b][1,4]oxazin-2-yl)propanoic acid] | – | < 500 | < 500 | – | *** (The symbol “***” indicates a value in the range of greater than 150 to 200) | ** (The symbol “**” indicates a value in the range of greater than 90 to 150)
CC(C)c1ccccc1-c1ccc2c(c1)N(S(=O)(=O)c1cccc(C(F)(F)F)c1)C[C@H](CCC(=O)O)O2 [Compound 2AJ, (S)-3-(6-(2-isopropylphenyl)-4-((3-(trifluoromethyl)phenyl)-sulfonyl)-3,4-dihydro-2H-benzo[b][1,4]oxazin-2-yl)propanoic acid] | < 500 | < 500 | – | ** (The symbol “**” indicates a value in the range of greater than 90 to 150) | **** (The symbol “****” indicates a value greater than 200) | –
C[C@H](C[C@H]1CN(S(=O)(=O)c2cccc(C(F)(F)F)c2)c2cc(-c3cccc(Cl)c3F)ccc2O1)C(=O)O [Compound 46D, (R)-3-((S)-6-(3-chloro-2-fluoro-phenyl)-4-((3-(trifluoromethyl)-phenyl)sulfonyl)-3,4-dihydro-2H-benzo[b][1,4]oxazin-2-yl)-2-methylpropanoic acid] | – | < 500 | < 500 | – | *** (The symbol “***” indicates a value in the range of greater than 150 to 200) | ** (The symbol “**” indicates a value in the range of greater than 90 to 150)
CC(C)(C[C@H]1CN(S(=O)(=O)c2cccc(C(F)(F)F)c2)c2cc(-c3cc(F)cc(F)c3F)ccc2O1)C(=O)O [Compound 32X, (S)-2,2-dimethyl-3-(4-((3-(trifluoromethyl)phenyl)sulfonyl)-6-(2,3,5-trifluorophenyl)-3,4-dihydro-2H-benzo[b][1,4]oxazin-2-yl)propanoic acid] | – | < 500 | < 500 | – | *** (The symbol “***” indicates a value in the range of greater than 150 to 200) | ** (The symbol “**” indicates a value in the range of greater than 90 to 150)
COc1cccc(-c2ccc3c(c2)N(S(=O)(=O)c2cccc(C(F)(F)F)c2)C[C@H](CCCOc2noc(=O)[nH]2)O3)c1 [Compound 36B, (S)-3-(3-(6-(3-methoxyphenyl)-4-((3-(trifluoromethyl)phenyl)-sulfonyl)-3,4-dihydro-2H-benzo[b][1,4]oxazin-2-yl)propoxy)-1,2,4-oxadiazol-5(4H)-one] | < 500 | < 500 | – | ** (The symbol “**” indicates a value in the range of greater than 90 to 150) | **** (The symbol “****” indicates a value greater than 200) | –
CC(=O)N[C@H]1C[C@](C[C@H]2CN(S(=O)(=O)c3cccc(C(F)(F)F)c3)c3cc(-c4cc(F)cc(OC(F)F)c4)ccc3O2)(C(=O)O)C1 [Compound 85, (1r,3S)-3-acetamido-1-(((S)-6-(3-(difluoromethoxy)-5-fluorophenyl)-4-((3-(trifluoromethyl)phenyl)sulfonyl)-3,4-dihydro-2H-benzo[b][1,4]oxazin-2-yl)methyl)cyclobutane-1-carboxylic Acid] | – | < 500 | < 500 | – | ** (The symbol “**” indicates a value in the range of greater than 90 to 150) | ** (The symbol “**” indicates a value in the range of greater than 90 to 150)
Cc1ccc(C)c(-c2ccc3c(c2)N(S(=O)(=O)c2cccc(C(F)(F)F)c2)C[C@H](CC(C)(C)C(=O)O)O3)c1 [Compound 32AT, (S)-3-(6-(2,5-dimethylphenyl)-4-((3-(trifluoromethyl)phenyl)-sulfonyl)-3,4-dihydro-2H-benzo[b][1,4]oxazin-2-yl)-2,2-dimethylpropanoic acid] | – | < 500 | < 500 | – | ** (The symbol “**” indicates a value in the range of greater than 90 to 150) | ** (The symbol “**” indicates a value in the range of greater than 90 to 150)
CC(C)(F)C(=O)NC[C@H]1CN(S(=O)(=O)c2cccc(C(F)(F)F)c2)c2cc(-c3cc(F)cc(OC(F)F)c3)ccc2O1 [Compound 30DG, (S)-N-((6-(3-(difluoromethoxy)-5-fluorophenyl)-4-((3-(trifluoro-methyl)phenyl)sulfonyl)-3,4-dihydro-2H-benzo[b][1,4]-oxazin-2-yl)methyl)-2-fluoro-2-methylpropanamide] | – | < 500 | 500 to 5000 | – | *** (The symbol “***” indicates a value in the range of greater than 150 to 200) | * (The symbol “*” indicates a value in the range of 25 to 90)
O=S(=O)(c1cccc(C(F)(F)F)c1)N1C[C@H](CC2(CO)COC2)Oc2ccc(-c3cc(F)cc(F)c3Cl)cc21 [Compound 51A, (S)-(3-((6-(2-chloro-3,5-difluoro-phenyl)-4-((3-(trifluoromethyl)-phenyl)sulfonyl)-3,4-dihydro-2H-benzo[b][1,4]oxazin-2-yl)methyl)oxetan-3-yl)methanol] | – | < 500 | < 500 | – | ** (The symbol “**” indicates a value in the range of greater than 90 to 150) | ** (The symbol “**” indicates a value in the range of greater than 90 to 150)

— patent US10611740B2, “Aryl dihydro-2H-benzo[b][1,4]oxazine sulfonamide and related compounds for use as agonists of RORγ and the treatment of disease” (Lycera Corporation, priority 2015, dated 2020)
